According to patent US4870002A, “Method of prevention of oxidative injury to cells” (priority 1985, dated 1989):
“Also recorded” adds a separate entry of the source.

Tests used:
[1] = system: pig RBCs; experiment: Thermal fragility / hemolysis of RBCs (410 nm absorbance of supernatant); format: cell-based
Method: Blood was collected from Landrace-Duroc swine from a closed herd. Pigs from this herd had previously expressed episodes of porcine stress syndrome (malignant hyperthermia) following halothane anesthesia. The blood was collected into acidic citrated dextrose solution in standard blood bags. The blood was diluted 1:10 in phosphate (0.1M) buffered saline (PBS), pH 7.4, in 10 ml aliquots, centrifuged in a clinical centrifuge, and the erythrocytes were resuspended in fresh PBS. The cells were stored at 4° C. until used in the various assays. The post-collection chronological age of the RBCs used for a particular assay is noted in the results for each assay. The cells were counted in an automated cell counter (Coulter ZBI, Coulter Electronics, Inc., Hialeah, Fla. 33010).
Red blood cells were heated in 1 or 1.5 ml aliquots of PBS pH 7.4 with or without additional reagents in cellulose nitrate or polypropylene centrifuge tubes. Two concentrations of cells were used as indicated in the results. Heating was accomplished by three methods: microwave radiation, hot air, or water bath heating. The microwave device was a circularly polarized waveguide powered by a 1-kw S-band (microwave) amplifier (Model 10704,MCL, Inc., La Grange, Ill.). The heating of the sample at a specific absorption rate (SAR) of 91±4 W/kg (continuous wave (CW), 2450MHz) was offset by an air-cooling system that maintained a constant temperature. This system has been previously described in greater detail in Kiel, J. L. and D. N. Erwin, "Microwave and thermal interactions with oxidative hemolysis", 16 Physiol. Chem. Phys. Med. NMR, 317-323 (1984), which reference is hereby incorporated in its entirety by this specific reference thereto. […] The temperature was held within ±0.2° C. by this system. In the absence of microwave radiation, the temperature was held constant by hot air alone. The microwave/hot air system was brought to 37° C. for 15 min. prior to raising the temperature to 43° C. by microwaves or hot hot air. The water bath heating held the temperature within ±0.5° C. Heating times were 10, 15, or 30 min. The temperatures examined were 37°, 43°, 45°, or 48°.
Hemoglobin released into the supernatants of the heated cells were determined by the method described in the above-incorporated reference of Kiel and Erwin (1984). In brief, the supernatants were collected following centrifugation in a clinical centrifuge, diluted 1:2 in PBS, pH 7.4, and the optical absorbances at 410 nm were determined in a dual beam spectrophotometer. Pyruvate, lactate, inosine, hydrogen peroxide, mimosine, and/or 3-amino-L-tyrosine were added to the samples as indicated in Tables 1-3 and 9-12. All reagents were diluted in PBS and the final volumes of the samples were constant.

[2] = system: human KBE epidermoid carcinoma cells; experiment: Survival after gamma irradiation by colony formation; format: cell-based; settings: for radioprotection, in words: low dose
Method: In those experiments performed with media containing phenol red, this medium was replaced (in
each flask) with 10 ml of fresh medium; the flasks were then reincubated at 37° C. for 1 hour. After this time, under yellow light, 0.05 ml aliquots of distilled water or solutions of 3-aminotyrosine were injected to give 1:200 dilutions. […] Flasks were irradiated at 0, 250, 500, or 1000 rads at room temperature as previously described. Efforts were made to keep light exposure to a minimum. For those flasks irradiated for 8 min (10 Gy), the temperature in the flasks would decrease during that interval to 30° C.
Immediately after the irradiations were complete, the attached cells were washed two times with Saline A salt solution, the trypsinized using standard procedures with 1.5 ml of trypsin-EDTA (GIBCO 610-5300). The cells were declumped after inactivation of the trypsin with fresh medium, and the cell density determined by Coulter counter. Cell dilutions of appropriate densities were made with fresh medium in sterile plastic conical centrifuge tubes, and 5 ml aliquots were seeded at two different dilutions for each treatment flask into fresh T-25 flasks (4 replicate flasks at each cell dilution). The flasks were all incubated for 7 days, at which time the old medium was aspirated and the cells were fixed in situ with 100% methanol. The colonies were then stained with 0.3% methylene blue, and rinsed with distilled water. After air drying, colonies greater than 1 mm in diameter were scored as viable colonies. The cloning efficiency in each flask was determined as described for the L5178Y cells above.
In one experiment, treatment with 3-aminotyrosine was performed using custom formulated Earle's BME medium without phenol red (GIBCO 85-0078). Prior to addition of 3-aminotyrosine, cells were washed free of the standard growth medium using Saline A without phenol red.

With `Nc1cc(C[C@H](N)C(=O)O)ccc1O` [3-aminotyrosine, 3-amino-L-tyrosine] the “Percent difference from controls (corrected), 4° C.” value ([1]; 74 μM, 48° C. 30 min) was -0.8%, the “Percent difference from controls (corrected), 48° C.” value ([1]; 74 μM, 48° C. 30 min) was -38.3% and the “410 nm absorbance, Actual” value ([1]; 74 μM, 48° C. 30 min, RBCs 20 days post collection, 1.4×10^9 per ml) was 0.491 ± 0.032. The “410 nm absorbance, Corrected” value ([1]; 74 μM, 48° C. 30 min, corrected for RBC dilution) was 0.368, the “effect on thermal hemolysis, in words” value ([1]; 74 μM, 48° C. for 30 min) was “suppressed the thermal hemolysis to the level of the 4 °C control; also recorded: powerful inhibitor” and the “effect on thermal hemolysis, in words” value ([1]; 1.49 mM, 45° C.) was “did not significantly inhibit”. The “hemolysis, optical density of supernatants (1:2 dilution) at 410 nm” value ([1]; 3-amino-L-tyrosine and H2O2 at 37° C., 4° C. control 0.243±0.004) was 0.261±0.007, the hemolytic value ([1]; preincubation with 3-amino-L-tyrosine alone (1.49 mM, 4° C., 72 hours)) was 0.452±0.02 and the spontaneous hemolysis reading ([1]; pyruvate and 3-amino-L-tyrosine, 37° C.) was 0.326±0.03. The “Ratio of Percent Survival, 3-Aminotyrosine/Control” value ([2]; Twenty-Four Hour Incubation (No Phenol Red), 250 rads, 2 micromoles/ml) was 1.08, the “Ratio of Percent Survival, 3-Aminotyrosine/Control” value ([2]; Twenty-Four Hour Incubation (No Phenol Red), 250 rads, 100 nanomoles/ml) was 0.79 and the “Ratio of Percent Survival, 3-Aminotyrosine/Control” value ([2]; Twenty-Four Hour Incubation (No Phenol Red), 500 rads, 2 micromoles/ml) was 1.49. For the same compound, the “Ratio of Percent Survival, 3-Aminotyrosine/Control” value ([2]; Twenty-Four Hour Incubation (No Phenol Red), 500 rads, 100 nanomoles/ml) was 0.48, the “Ratio of Percent Survival, 3-Aminotyrosine/Control” value ([2]; Twenty-Four Hour Incubation (No Phenol Red), 1000 rads, 2 micromoles/ml) was 2.61 and the “Ratio of Percent Survival, 3-Aminotyrosine/Control” value ([2]; Twenty-Four Hour Incubation (No Phenol Red), 1000 rads, 100 nanomoles/ml) was 2.32. The “Ratio of Percent Survival, 3-Aminotyrosine/Control” value ([2]; Twenty-Four Hour Incubation (Phenol Red Present), 250 rads, 2 micromoles/ml) was 1.28, the “Ratio of Percent Survival, 3-Aminotyrosine/Control” value ([2]; Twenty-Four Hour Incubation (Phenol Red Present), 250 rads, 100 nanomoles/ml) was 1.53 and the “Ratio of Percent Survival, 3-Aminotyrosine/Control” value ([2]; Twenty-Four Hour Incubation (Phenol Red Present), 500 rads, 2 micromoles/ml) was 2.91. For the same compound, the “Ratio of Percent Survival, 3-Aminotyrosine/Control” value ([2]; Twenty-Four Hour Incubation (Phenol Red Present), 500 rads, 100 nanomoles/ml) was 1.36, the “Ratio of Percent Survival, 3-Aminotyrosine/Control” value ([2]; Twenty-Four Hour Incubation (Phenol Red Present), 1000 rads, 2 micromoles/ml) was 4.65 and the “Ratio of Percent Survival, 3-Aminotyrosine/Control” value ([2]; Twenty-Four Hour Incubation (Phenol Red Present), 1000 rads, 100 nanomoles/ml) was 1.63. For the same compound, the “Ratio of Percent Survival, 3-Aminotyrosine/Control” value ([2]; Zero hour incubation, 250 rads, 2 micromoles/ml) was 1.70, the “Ratio of Percent Survival, 3-Aminotyrosine/Control” value ([2]; Zero hour incubation, 250 rads, 100 nanomoles/ml) was 0.94 and the “Ratio of Percent Survival, 3-Aminotyrosine/Control” value ([2]; Zero hour incubation, 500 rads, 2 micromoles/ml) was 1.25. The “Ratio of Percent Survival, 3-Aminotyrosine/Control” value ([2]; Zero hour incubation, 500 rads, 100 nanomoles/ml) was 0.81, the “Ratio of Percent Survival, 3-Aminotyrosine/Control” value ([2]; Zero hour incubation, 1000 rads, 2 micromoles/ml) was 2.26 and the “Ratio of Percent Survival, 3-Aminotyrosine/Control” value ([2]; Zero hour incubation, 1000 rads, 100 nanomoles/ml) was 0.99. The “effect on survival after irradiation, in words” value ([2]; high concentration, added 24 hours prior to exposure, medium containing phenol red) was “radioprotective effect”, the “radioprotection, in words” value ([2]; 10 minute preincubations (0 hours)) was “no radioprotection” and the “radioprotection, in words” value ([2]; pre-incubation for 24 hours) was “low-dose radioprotection”.
